These results are taken from patent US7501418B2, “Fused heterocyclic isoxazoline derivatives and their use as anti-depressants” (Janssen Pharmaceutica, N.V., priority 2002, dated 2009).

The target in one series is T1, hα2A receptor (Homo sapiens, UniProt P08913).
T1 construct: expressed in transfected cells
T1 sequence (P08913 1-465): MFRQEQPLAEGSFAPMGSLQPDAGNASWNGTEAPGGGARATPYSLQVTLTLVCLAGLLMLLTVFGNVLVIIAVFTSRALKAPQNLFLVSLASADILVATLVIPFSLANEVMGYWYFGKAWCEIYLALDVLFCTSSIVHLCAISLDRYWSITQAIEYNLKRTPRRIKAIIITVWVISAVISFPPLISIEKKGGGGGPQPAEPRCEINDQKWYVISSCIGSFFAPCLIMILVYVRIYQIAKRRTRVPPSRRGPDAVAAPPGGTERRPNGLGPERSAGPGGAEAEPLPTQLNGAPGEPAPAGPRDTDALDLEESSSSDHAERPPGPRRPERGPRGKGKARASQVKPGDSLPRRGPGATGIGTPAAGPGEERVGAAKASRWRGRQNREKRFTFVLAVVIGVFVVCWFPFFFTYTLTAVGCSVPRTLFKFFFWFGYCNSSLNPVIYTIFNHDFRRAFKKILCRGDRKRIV
The series can be described thus: Radioligand binding experiment for α2A-adrenergic receptor ([3H]-raulwolscine). To be noted: hα2A (pIC50), CHO cell membranes with human α2A receptor, [3H]raulwolscine 1 nM. Here is the method:
(§1) In general, a low concentration of a radioligand with a high binding affinity for a particular receptor or transporter is incubated with a sample of a tissue preparation enriched in a particular receptor or transporter or with a preparation of cells expressing cloned human receptors in a buffered medium. During the incubation, the radioligand binds to the receptor or transporter. When equilibrium of binding is reached, the receptor bound radioactivity is separated from the non-bound radioactivity, and the receptor- or transporter-bound activity is counted. The interaction of the test compounds with the receptor is assessed in competition binding experiments. Various concentrations of the test compound are added to the incubation mixture containing the receptor- or transporter preparation and the radioligand. The test compound in proportion to its binding affinity and its concentration inhibits binding of the radioligand. The radioligand used for hα2A, hα2B and hα2C receptor binding was [^3H]-raulwolscine and for the h5-HT transporter was [^3H]paroxetine. CHO cells, stabile transfected with human adrenergic-α2A-, -α2B or α2C receptor cDNA, were cultured in Dulbecco's Modified Eagle's Medium (DMEM)/Nutrient mixture Ham's F12 (ratio 1:1)(Gibco, Gent-Belgium) supplemented with 10% heat inactivated fetal calf serum (Life Technologies, Merelbeke-Belgium) and antibiotics (100 IU/ml penicillin G, 100 μg/ml streptomycin sulphate, 110 μg/ml pyruvic acid and 100 μg/ml L-glutamine). One day before collection, cells were induced with 5 mM sodiumbutyrate. Upon 80-90% of confluence, cells were scraped in phosphate buffered saline without Ca^2+ and Mg^2+ and collected by centrifugation at 1500×g for 10 min. The cells were homogenised in Tris-HCl 50 mM using an Ultraturrax homogenizer and centrifuged for 10 min at 23,500×g. The pellet was washed once by resuspension and rehomogenization and the final pellet was resuspended in Tris-HCl, divided in 1 ml aliquots and stored at −70° C. Membranes were thawed and re-homogenized in incubation buffer (glycylglycine 25 mM, pH 8.0). In a total volume of 500 μl, 2-10 μg protein was incubated with [^3H]raulwolscine (NET-722) (New England Nuclear, USA) (1 nM final concentration) with or without competitor for 60 min at 25° C. followed by rapid filtration over GF/B filter using a Filtermate196 harvester (Packard, Meriden, Conn.). Filters were rinsed extensively with ice-cold rinsing buffer (Tris-HCl 50 mM pH 7.4). Filter-bound radioactivity was determined by scintillation counting in a Topcount (Packard, Meriden, Conn.) and results were expressed as counts per minute (cpm). Non-specific binding was determined in the presence of 1 μM oxymetazoline for hα2A- and hα2B receptors and 1 μM spiroxatrine for hα2C receptors. Data from assays in the presence of compound were calculated as a percentage of total binding measured in the absence of test compound. Inhibition curves, plotting percent of total binding versus the log value of the concentration of the test compound, were automatically generated, and sigmoidal inhibition curves were fitted using non-linear regression. The pIC50 values of test compounds were derived from individual curves.

For a further series, the target named is T2, h5-HT transporter (Homo sapiens, UniProt P31645).
T2 construct: Human platelet membranes (Oceanix Biosciences Corporation, Hanover, Md., USA) were thawed; tissue Oceanix Biosciences Corporation, Hanover, Md., USA; host or cells: human platelet membranes
The series can be described thus: Radioligand binding experiment for 5-HT transporter ([3H]paroxetine). The note with it: human platelet membranes, [3H]paroxetine 0.5 nM. The method, then: In general, a low concentration of a radioligand with a high binding affinity for a particular receptor or transporter is incubated with a sample of a tissue preparation enriched in a particular receptor or transporter or with a preparation of cells expressing cloned human receptors in a buffered medium. During the incubation, the radioligand binds to the receptor or transporter. When equilibrium of binding is reached, the receptor bound radioactivity is separated from the non-bound radioactivity, and the receptor- or transporter-bound activity is counted. The interaction of the test compounds with the receptor is assessed in competition binding experiments. Various concentrations of the test compound are added to the incubation mixture containing the receptor- or transporter preparation and the radioligand. The test compound in proportion to its binding affinity and its concentration inhibits binding of the radioligand. The radioligand used for hα2A, hα2B and hα2C receptor binding was [^3H]-raulwolscine and for the h5-HT transporter was [^3H]paroxetine. Human platelet membranes (Oceanix Biosciences Corporation, Hanover, Md., USA) were thawed, diluted in buffer (Tris-HCl 50 mM, 120 mM NaCl and 5 mM KCl) and quickly (max 3 s) homogenised with an Ultraturrax homogenizer. In a total volume of 250 μL, 50-100 μg protein was incubated with [^3H]paroxetine (NET-869) (New England Nuclear, USA) (0.5 nM final concentration) with or without competitor for 60 min at 25 ° C. Incubation was stopped by rapid filtration of the incubation mixture over GF/B filters, pre-wetted with 0.1% polyethyleneamine, using a Filtermate196 harvester (Packard, Meriden, Conn.). Filters were rinsed extensively with ice-cold buffer and radioactivity on the filters was counted in a Topcount liquid scintillation counter (Packard, Meriden, Conn.). Data were expressed as cpm. Imipramine (at 1 μM final concentration) was used to determine the non-specific binding. Data from assays in the presence of compound were calculated as a percentage of total binding measured in the absence of test compound. Inhibition curves, plotting percent of total binding versus the log value of the concentration of the test compound, were automatically generated, and sigmoidal inhibition curves were fitted using non-linear regression. The pIC50 values of test compounds were derived from individual curves.

The next series concerns the target T3, hα2B receptor (Homo sapiens, UniProt P18089).
T3 construct: expressed in transfected cells
T3 sequence (P18089 1-450): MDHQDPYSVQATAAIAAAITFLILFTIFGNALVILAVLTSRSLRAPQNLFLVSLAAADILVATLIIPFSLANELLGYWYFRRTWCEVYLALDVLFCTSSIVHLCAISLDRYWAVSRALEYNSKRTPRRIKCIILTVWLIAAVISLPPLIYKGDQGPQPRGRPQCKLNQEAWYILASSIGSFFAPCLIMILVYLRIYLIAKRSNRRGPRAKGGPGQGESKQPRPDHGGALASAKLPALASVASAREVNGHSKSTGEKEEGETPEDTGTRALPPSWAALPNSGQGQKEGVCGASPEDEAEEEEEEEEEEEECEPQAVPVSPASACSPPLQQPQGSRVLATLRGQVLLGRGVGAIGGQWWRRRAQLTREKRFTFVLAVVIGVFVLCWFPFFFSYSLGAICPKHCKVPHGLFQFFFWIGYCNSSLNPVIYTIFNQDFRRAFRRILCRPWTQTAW
Put plainly: Radioligand binding experiment for α2B-adrenergic receptor ([3H]-raulwolscine). The method, then: as §1

For the next series, the target named is T4, hα2C receptor (Homo sapiens, UniProt P18825).
T4 construct: expressed in transfected cells
T4 sequence (P18825 1-462): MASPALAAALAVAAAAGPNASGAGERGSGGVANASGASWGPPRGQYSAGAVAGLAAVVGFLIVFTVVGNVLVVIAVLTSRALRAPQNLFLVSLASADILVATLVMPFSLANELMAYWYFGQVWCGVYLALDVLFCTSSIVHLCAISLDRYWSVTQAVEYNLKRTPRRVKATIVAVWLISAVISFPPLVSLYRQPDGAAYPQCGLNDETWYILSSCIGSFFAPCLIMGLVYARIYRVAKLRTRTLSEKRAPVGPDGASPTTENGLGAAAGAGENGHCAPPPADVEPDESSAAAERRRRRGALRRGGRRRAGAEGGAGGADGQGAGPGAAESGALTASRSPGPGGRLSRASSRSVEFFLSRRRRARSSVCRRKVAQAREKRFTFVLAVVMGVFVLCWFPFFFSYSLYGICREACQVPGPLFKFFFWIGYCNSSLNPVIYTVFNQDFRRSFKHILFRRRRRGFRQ
Put plainly: Radioligand binding experiment for α2C-adrenergic receptor ([3H]-raulwolscine). Here is the method: as §1

Molecules are shown by their SMILES. Read-outs that look alike come from different tables or passages of the source.

T2 sequence (P31645 whole entry): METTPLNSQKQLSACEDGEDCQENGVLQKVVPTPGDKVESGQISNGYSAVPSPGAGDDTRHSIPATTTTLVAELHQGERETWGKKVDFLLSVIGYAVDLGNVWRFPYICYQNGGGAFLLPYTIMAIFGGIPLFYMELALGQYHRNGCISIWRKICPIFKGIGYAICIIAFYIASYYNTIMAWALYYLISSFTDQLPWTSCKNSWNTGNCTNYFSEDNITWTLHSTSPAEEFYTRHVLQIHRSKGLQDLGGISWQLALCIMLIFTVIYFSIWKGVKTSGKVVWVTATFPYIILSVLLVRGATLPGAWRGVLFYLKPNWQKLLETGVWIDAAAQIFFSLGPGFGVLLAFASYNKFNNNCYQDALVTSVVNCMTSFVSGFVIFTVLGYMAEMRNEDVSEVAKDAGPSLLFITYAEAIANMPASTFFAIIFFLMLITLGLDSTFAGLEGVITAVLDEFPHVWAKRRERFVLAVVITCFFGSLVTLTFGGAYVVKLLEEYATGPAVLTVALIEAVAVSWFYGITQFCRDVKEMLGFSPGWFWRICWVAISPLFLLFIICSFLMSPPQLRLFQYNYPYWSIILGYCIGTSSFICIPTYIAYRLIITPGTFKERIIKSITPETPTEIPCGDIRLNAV

As a reminder, the IC50 is the concentration at which inhibition is half-maximal. For orientation: melting point means the temperature, or range, at which the solid turns liquid. The molecule `C/C(=C\c1ccccc1)CN1CCN(CC2ON=C3c4cc5ccn(CCO)c5cc4OCC32)CC1` (single isomer, unassigned) [Compound 16, A-2-{3-[4-(2-methyl-3-phenyl-allyl)-piperazin-1-ylmethyl]-3a,4-dihydro-3H-2,5-dioxa-1,7-diaza-dicyclopenta[a,g]naphthalen7-yl}-ethanol] showed a melting point of 167.9 to 170.2 °C. Moreover, on hα2A receptor, the 50% inhibitory concentration (IC50) is 316 nM. In addition, the “5-HTT (pIC50)” value on h5-HT transporter was 6.3. The same molecule had an IC50 on hα2B receptor (hα2B (pIC50), CHO cell membranes with human α2B receptor, [3H]raulwolscine 1 nM) of 20 nM. The molecule further showed an IC50 on hα2C receptor (hα2C (pIC50), CHO cell membranes with human α2C receptor, [3H]raulwolscine 1 nM) of 50.1 nM.

In turn, `C/C(=C\c1ccccc1)CN1CCN(C[C@@H]2ON=C3c4cc5cc[nH]c5cc4OC[C@H]32)CC1` (relative stereo) [Compound 1, 3-[4-(2-Methyl-3-phenyl-allyl)-piperazin-1-ylmethyl]-3a,4-dihydro-3H-2,5-dioxa-1,7-diaza-dicyclopenta[a,g]naphthalene] yielded a melting point of 173.2 to 179.1 °C. The IC50 on hα2A receptor was 5.01 nM. The 50% inhibitory concentration (IC50) on h5-HT transporter (5-HTT (pIC50)) was 3.98 nM. The IC50 on hα2B receptor is 3.98 nM. On hα2C receptor, this molecule showed an IC50 of 1 nM.
